According to patent publication US5032398A, “Selective modification of the catalytic subunit of pertussis toxin” (priority 1986, dated 1991):

How the values were obtained:
pertussis toxin [1] = target: T1, pertussis toxin (Bordetella pertussis, UniProt P04977); assay: NADase activity of pertussis toxin after activation and treatment with alkylating reagent (Example One); format: biochemical
Source text: The ADP-ribosylating activity of the pertussis toxin can be detected as a nicotinamide-adenine dinucleotide-glycohydrolase (NADase) activity, which can be conveniently assayed through the use of [nicotinamide-^14 C] or [nicotinamide-^3 H] NAD. NAD consists of ADP-ribose linked to nicotinimide, and thus the extent of the release of ADP-ribose from NAD is an indication of the ability of the toxin to cause ill effects. In conducting this assay of the hydrolysis of labelled NAD, ion-exchange column chromatography was employed to resolve the product from the substrate according to the method described by Moss et al., J. Biol. Chem. 258, 11879 (1983) which is incorporated herein by reference. However, several modifications to this method were employed. First, a QAE-Sephadex resin was employed, as was a [nicotinamide-^3 H] NAD. Specifically, a 2 ml QAE-Sephadex column was first washed with 10 ml 1NHCl, followed by 10 ml H2 O, 20 ml 0.5M Tris-HCl pH 7.0, and 40 ml H2 O. [^3 H] NAD was applied, and the column washed with 20 ml water to elute impurities. Purified [^3 H] NAD was eluted with 0.25M NaCl, and stored in small aliquots at -70° C. The purified [^3 H] NAD contributed 50 mM NaCl (final concentration) to the NADase assays.
Before the end of the reaction, 2 ml QAE-Sephadex columns were treated with 10 ml 0.1M imidazole-HCl pH 7.0 with 1.0M NaCl, followed by 40 ml water. The NADase reaction (in 100 μl) was terminated by adding 0.85 ml of ice-cold water, and the entire 0.95 ml was pipetted into a treated QAE column. The labelled nicotinamide was then eluted with 3 ml of water directly into a scintillation vial and counted. The absorbed labelled NAD was then eluted into radioactive waste with 10 ml 0.1M imidazole-HCl pH 7.0 with 1.0M NaCl, and the column stored partially immersed in a water bath until the next assay.
In order to determine if any active toxin remained after the inactivation, a large excess of sulfhydryl reductant was added to each tube to scavenge unreacted sulfhydryl reagent. The NADase activity of the preparation was then measured. The three incubations were performed under a nitrogen atmosphere using degassed solutions to prevent oxidation of sulfhydryl groups which would prevent the sulfhydryl reagent from modifying the sulfhydryl group.
The pertussis toxin in the Examples comprised 50 μg of the toxin in a 500 μl solution of 10 mM sodium phosphate-50 mM sodium chloride-water solution having a pH of 7. The enzymatic activity was detected as the hydrolysis of nicotinamide labelled NAD and ion-exchange column chromatography to resolve the product from the substrate. Unless otherwise noted, the assay was initiated by adding 0.5 to 2.5 μg of the toxin to a reaction mixture for a final volume of 100 μl. The NADase reaction was terminated by adding 0.85 ml of ice-cold water. The entire 0.95 ml was then pipetted into a QAE-Sephadex column (chloride form) and the labelled nicotinamide eluted with 3 ml of water directly into a scintillation vial and counted. […] One unit of NADase activity is defined as 1 pmol NAD hydrolyzed per hour.
One-half microgram of pertussis toxin was incubated for thirty minutes at […] in 100 mM Tris-HCl (pH 8.0), with or without activators, in a volume of 50 μl. When present, ATP and pyrophosphate were present in a concentration of 2 mM, CHAPS at 2 weight percent, and DTT in a concentration of either 2 mM (trial 1) or 1 mM (trial 2). 10 μl of water with or without iodoacetate or N-ethylmaleimide was then added and a second incubation conducted at 30° C. for either thirty minutes (trial 1) or fifteen minutes (trial 2). After this incubation, 10 μl of 200 mM DTT was added to each tube, and the tubes were incubated for thirty (trial 1) or sixty minutes (trial 2) on ice to scavenge the iodoacetate or N-ethylmaleimide.

pertussis toxin [2] = target: T1, pertussis toxin; assay: Inactivation of NADase activity by iodoacetate after different activator combinations (Example Seven); format: biochemical
Experimental: Pertussis toxin was incubated first at 37° C. for fifteen minutes in […] buffer A (100 mM Tris-HCl, pH 8.0 with 1 mM NaEDTA). EDTA was added to chelate divalent cations, which may promote oxidation of free --SH groups. During this incubation, DTT and ATP were present in concentrations of 1 mM each, and CHAPS was present in a concentration of 1 weight percent. Labelled iodoacetate was then added ([…], 12.5 mM), and the tube incubated on ice for twenty hours. The sample was then mixed with sodium dodecylsulfate and β-mercaptoethanol, heated at 95° C. for one minute, and electrophoresed. After electrophoresis, the gel was fixed, treated with Fluorohance (Research Products International), dried and used to expose x-ray film.
Pertussis toxin was incubated at 37° C. for fifteen minutes as described in Example Six, and then a second incubation was begun by adding 10 μl buffer A with or without 12.5 mM iodoacetate, mixing the contents of the tube and lowering the temperature to 30° C. After fifteen minutes, the tubes were shifted to an ice bath for ten minutes. A third incubation was then begun by adding 10 μl buffer A containing 200 mM DTT to those tubes containing iodoacetate to scavenge the iodoacetate. To those tubes not containing iodoacetate during the second incubation, a mixture of 200 mM DTT and 12.5 mM iodoacetate in buffer A, previously incubated for an hour on ice, was added. The third incubation was continued for one hour on ice.
The contents of each tube were then assayed for NADase activity by adding 40 μl of a reaction mix consisting of buffer A containing carbon-14 labelled NAD (final concentration in the 100 μl final volume was 25 μM), and 50 mM sodium chloride. Different reaction mixtures with various additions were used, so that in all tubes the final concentration of ATP was 1 mM and CHAPS was 1 weight percent. The assay was conducted at 37° C. for sixty minutes, and the released labelled nicotinimide was isolated and counted. The iced controls were formed by incubating pertussis toxin (1 μg) on ice in 10 mM sodium phosphate (pH 7) and 50 mM sodium chloride during the first three incubations. […] The first three incubations were done under a nitrogen atmosphere using degassed conditions, and the second and third incubations were done under subdued light.

T1 sequence (P04977 35-269 limits assumed): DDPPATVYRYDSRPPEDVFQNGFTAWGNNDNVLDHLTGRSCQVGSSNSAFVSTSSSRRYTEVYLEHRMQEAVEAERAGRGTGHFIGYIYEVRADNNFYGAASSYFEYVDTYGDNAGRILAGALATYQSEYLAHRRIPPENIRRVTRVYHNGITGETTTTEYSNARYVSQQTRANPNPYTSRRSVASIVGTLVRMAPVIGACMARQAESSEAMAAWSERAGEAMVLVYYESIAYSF

O=C(O)CI [iodoacetate]
NADase activity (%) of the activity of toxin treated the same way without alkylating agent (pertussis toxin [1]; first incubation: DTT 1 mM, CHAPS 2%, ATP 2 mM, Experiment #2, second incubation 15 min at 30° C, 25 μM NAD): 3%
NADase activity (%) of the activity of toxin treated the same way without alkylating agent (pertussis toxin [1]; first incubation: DTT 1 mM, CHAPS 2%, pyrophosphate 2 mM, Experiment #2, second incubation 15 min at 30° C, 25 μM NAD): 31%
NADase activity (%) of the activity of toxin treated the same way without alkylating agent (pertussis toxin [1]; first incubation: DTT 2 mM, CHAPS 2%, ATP 2 mM, Experiment #1, second incubation 30 min at 30° C, 125 μM NAD): 4%
NADase activity (%) of the activity of toxin treated the same way without alkylating agent (pertussis toxin [1]; first incubation: DTT 2 mM, CHAPS 2%, pyrophosphate 2 mM, Experiment #1, second incubation 30 min at 30° C, 125 μM NAD): 28%
NADase activity (%) of the activity of toxin treated the same way without alkylating agent (pertussis toxin [1]; first incubation: none, Experiment #1, second incubation 30 min at 30° C, 125 μM NAD): 62%
NADase activity (%) of the activity of toxin treated the same way without alkylating agent (pertussis toxin [1]; first incubation: none, Experiment #2, second incubation 15 min at 30° C, 25 μM NAD): 87%
Time to inactivate toxin (pertussis toxin [2]; at 30° C.): within about fifteen minutes
Percent NADase activity relative to no addition to second incubation (pertussis toxin [2]; first incubation: ATP): 153
Percent NADase activity relative to no addition to second incubation (pertussis toxin [2]; first incubation: ATP, CHAPS): 80
Percent NADase activity relative to no addition to second incubation (pertussis toxin [2]; first incubation: ATP, DTT): 107
Percent NADase activity relative to no addition to second incubation (pertussis toxin [2]; first incubation: ATP, DTT, CHAPS): 14
Percent NADase activity relative to no addition to second incubation (pertussis toxin [2]; first incubation: CHAPS): 108
Percent NADase activity relative to no addition to second incubation (pertussis toxin [2]; first incubation: DTT): 123
Percent NADase activity relative to no addition to second incubation (pertussis toxin [2]; first incubation: DTT, CHAPS): 84
Percent NADase activity relative to no addition to second incubation (pertussis toxin [2]; first incubation: none): 87
